Assay results taken from patent US20090298859A1, “METHOD FOR TREATING PLANTS” (SYNGENTA CROP PROTECTION, INC., priority 2006, published 2009).
Several values for one entry are separate records, joined by “and”; a condition that tells them apart may be missing. Identical values can stand only once.

How the values were obtained:
Type in all cases: in vivo
[1] = test system: Tea plants (Japanese green tea, Yabukita); assay: Polyphenol content of tea leaves after pre-harvest spraying; parameters: Total catechin (g): unit not given here; conditions: autumn; for Total catechin (%) when compared to untreated / % compared to untreated (total catechin): untreated = 100%
Procedure: Tea plants (Japanese green tea, Yabukita) were grown in 5 m^2 plots, and the leaves were harvested. The harvested leaves were tested for polyphenols. Fourteen days before harvest, the tea plants were sprayed with a commercial formulation of emamectin benzoate (Affirm™), difenoconazole (Score™), methidathion (Supracid™), azoxystrobin (Amistar™) or a mixture of lufenuron and thiamethoxam. An otherwise identical set of tea plants were left untreated.
The experiment was repeated using either azoxystrobin or trifloxystrobin.
Both trials detailed above were carried out in the autumn. […] It is proposed that, when photosynthesis is active (e.g. in the summer season), addition of azoxystrobin may not enhance photosynthesis further and thus may not be able to further raise catechin levels.

[2] = test system: Tomato plants (Variety: Sunroad); assay: Lycopene content of harvested tomatoes after azoxystrobin spraying; conditions: for lycopene content, single replicate: stored at room temperature, listed as Az-treated; for lycopene content, single replicate / lycopene content, mean of 3 replicates: conventional fungicide treatment plus azoxystrobin
Procedure: Tomato plants (Variety: Sunroad) were grown and the tomatoes were harvested after spraying with a conventional fungicide treatment and with the conventional treatment plus azoxystrobin. The harvested tomatoes were stored at room temperature and tested for lycopene concentration 2, 5, 9 and 12 days after sample harvesting (three tomatoes were chosen at random from each box on each day of testing).
When this study was repeated using similar conditions but on a smaller scale, a marked rise in lycopene content was not observed (control: 11.7 mg lycopene/100 g tomato; azoxystrobin treated: 10.7 mg lycopene/100 g tomato).

Carrot plants = assay: β-carotene content of harvested carrots after azoxystrobin spraying; conditions: conventional treatment plus Amistar Opti (azoxystrobin and chlorothalonil)
Procedure: Carrot plants were grown and the carrots were harvested after spraying twice with a conventional fungicide treatment (chlorothalonil, copper hydroxide, iminoctazine polyoxin and tolclofos-methyl) and with the conventional treatment plus Amistar Opti™ (azoxystrobin and chlorothalonil). Some of the harvested carrots were analysed immediately on harvest for β-carotene while others were stored for a week after harvest before analysis. […] It seems therefore that azoxystrobin has a clear effect on β-carotene levels in mature carrots.

soybean = assay: Isoflavone levels in soybean after azoxystrobin treatment
Procedure: (§1) Similar work was carried out to look at isoflavone levels in soybean and anthocyanin levels in eggplant and strawberry on treatment of the plants with azoxystrobin. […] In addition, it also raised anthocyanin levels in strawberry by 50% (control: 200-220 mg anthocyanin/100 g strawberry; azoxystrobin treated: 210-420 mg anthocyanin/100 g strawberry), although it seemed to have no effect on anthocyanin levels in egg plant.

strawberry = assay: Anthocyanin levels in strawberry after azoxystrobin treatment
Procedure: as §1

eggplant = assay: Anthocyanin levels in eggplant after azoxystrobin treatment; conditions: egg plant
Procedure: as §1

[3] = Table 1 trial, commercial formulation sprayed 14 days before harvest
[4] = 12 days after sample harvesting

| Compound | Epicatechin [1, 3] | Epicatechin gallate [1, 3] | Epigalocatechin [1, 3] | Epigalocatechin gallate [1, 3] | Total catechin (%) when compared to untreated ([1]; Table 1 trial) [%] | Epicatechin ([1]; Table 2 repeat trial) | Epicatechin gallate ([1]; Table 2 repeat trial) | Epigalocatechin ([1]; Table 2 repeat trial) | Epigalocatechin gallate ([1]; Table 2 repeat trial) | Total catechin ([1]; Table 2 repeat trial) | % compared to untreated (total catechin) ([1]; Table 2 repeat trial) [%] | also measured |
| --- | --- | --- | --- | --- | --- | --- | --- | --- | --- | --- | --- | --- |
| CO/C=C(/C(=O)OC)c1ccccc1Oc1cc(Oc2ccccc2C#N)ncn1 [Azoxystrobin, azoxystrobin] | 930 mg polyphenol/100 g tea leaves | 960 mg polyphenol/100 g tea leaves | 4800 mg polyphenol/100 g tea leaves | 6200 mg polyphenol/100 g tea leaves | 113 | 24.5 mg polyphenol/g tea leaves | 31.1 mg polyphenol/g tea leaves | 178.8 mg polyphenol/g tea leaves | 160.6 mg polyphenol/g tea leaves | 395.0 mg polyphenol/g tea leaves | 107 | lycopene content, single replicate ([2]; 2 days after sample harvesting): 5.69 mg lycopene/100 g tomato and 5.67 mg lycopene/100 g tomato and 5.14 mg lycopene/100 g tomato; lycopene content, mean of 3 replicates ([2]; 2 days after sample harvesting): 5.50 mg lycopene/100 g tomato; lycopene content, single replicate ([2]; 5 days after sample harvesting): 8.36 mg lycopene/100 g tomato and 8.87 mg lycopene/100 g tomato and 6.01 mg lycopene/100 g tomato; lycopene content, mean of 3 replicates ([2]; 5 days after sample harvesting): 7.75 mg lycopene/100 g tomato; lycopene content, single replicate ([2]; 9 days after sample harvesting): 9.78 mg lycopene/100 g tomato and 9.14 mg lycopene/100 g tomato and 8.32 mg lycopene/100 g tomato; lycopene content, mean of 3 replicates ([2]; 9 days after sample harvesting): 9.08 mg lycopene/100 g tomato; lycopene content, single replicate [2, 4]: 8.27 mg lycopene/100 g tomato and 8.88 mg lycopene/100 g tomato and 9.24 mg lycopene/100 g tomato; lycopene content, mean of 3 replicates [2, 4]: 8.79 mg lycopene/100 g tomato; lycopene content ([2]; repeat study, similar conditions, smaller scale, control 11.7): 10.7 mg lycopene/100 g tomato; β-carotene levels compared with conventional fungicide regime (Carrot plants; carrots analysed immediately on harvest, sprayed twice): did not show an increase; β-carotene content (Carrot plants; carrots stored for one week after harvest, conventional treatment 6.59): 7.48 mg β-carotene/100 g carrot; isoflavone content (soybean; control 120): 130 mg isoflavone/100 g soybean; increase of isoflavone levels (soybean; soybean, versus control): 8%; anthocyanin content (strawberry; control 200-220): 210-420 mg anthocyanin/100 g strawberry; rise of anthocyanin levels (strawberry; strawberry, versus control): 50%; effect on anthocyanin levels (eggplant): no effect |
| CC1COC(Cn2cncn2)(c2ccc(Oc3ccc(Cl)cc3)cc2Cl)O1 (stereo not shown) [DFZ, difenoconazole] | 950 mg polyphenol/100 g tea leaves | 970 mg polyphenol/100 g tea leaves | 4300 mg polyphenol/100 g tea leaves | 5900 mg polyphenol/100 g tea leaves | 106 | – | – | – | – | – | – | – |
| COc1nn(CSP(=S)(OC)OC)c(=O)s1 [MTH, methidathion] | 1100 mg polyphenol/100 g tea leaves | 1100 mg polyphenol/100 g tea leaves | 4500 mg polyphenol/100 g tea leaves | 5700 mg polyphenol/100 g tea leaves | 109 | – | – | – | – | – | – | – |
| CON=C(C(=O)OC)c1ccccc1CON=C(C)c1cccc(C(F)(F)F)c1 [Trifloxystrobin, trifloxystrobin] | – | – | – | – | – | 23.8 mg polyphenol/g tea leaves | 32.4 mg polyphenol/g tea leaves | 190.1 mg polyphenol/g tea leaves | 163.0 mg polyphenol/g tea leaves | 409.3 mg polyphenol/g tea leaves | 110 | – |
| emamectin benzoate | 960 mg polyphenol/100 g tea leaves | 890 mg polyphenol/100 g tea leaves | 4600 mg polyphenol/100 g tea leaves | 5600 mg polyphenol/100 g tea leaves | 106 | – | – | – | – | – | – | Total catechin (g) ([1]; Table 1 trial, sprayed 14 days before harvest, table title: mg polyphenol/100 g tea leaves): 12050 |
